# Laboratory results from patent US20210052703A1 (SHANGHAI BENEMAE PHARMACEUTICAL CORPORATION, priority 2018, published 2021).
# Key:
# rats = experiment: blood sugar increase induced by alloxan and streptozotocin in rats; type: in vivo
# Sprague-Dawley (SD) rats = experiment: stomach emptying and carbon powder propelling in SD rats (Example 1); type: in vivo, rat; details: X ± SE
# Method: Each group had 10 rats, half male and half female. The tails of the rats were labeled as follows:
# The dose selection is calculated based on human dose. The clinical human dose is estimated to be about 0.4 mg/injection, one injection per day, which corresponds to 36 μg/kg rat dose, calculated based on the body surface area. Accordingly, the rats were tested at a medium dose of 30 μg/kg, a low dose at 50% of the medium dose, and a high dose at 200% of the medium dose. The clinical human dose of liraglutide for treating obesity is 3.0 mg/injection, one injection per day, which corresponds to 270 μg/kg rat dose, calculated based on the body surface area.
# The positive control was liraglutide injectable formulation, which was stored in dark, sealed condition. The rats were raised and kept at the Laboratory Animal Center, Shanghai University of Traditional Chinese Medicine.
# The injectable formulations were made and diluted at the time of experiment, as follows:
# The rats were fasted for 16 hours with only water provided. Before being divided into groups, the rats were weighed and weights were recorded (cage numbering and tail labeling). Based on the body weight, the rats were randomly divided into 5 groups, 10 in each group, half male and half female.
# The rats were administered with appropriate amounts of Beinaglutide or liraglutide based on their body weights by subcutaneous injection. Female rats were injected after male rats, in the order of their group numbers: 101, 201, 301, 401, 501, 102, 202, 302, 402, 502, etc. The formulations were injected to the rats by lifting the skin in the back, placing the needle of the syringe subcutaneously and injecting. When retrieving the needle, the site of injection was pressed with hand to avoid leakage of the formulation. The amount of injection is about 0.1 ml/100 g body weight.
# [1] = system: rabbits with normal glycemic index; experiment: glucose-induced high blood sugar in rabbits; type: in vivo
# type 2 diabetic patients = experiment: trial 5B: Beinaglutide with metformin in type 2 diabetic patients
# [2] = body weight, food intake and body composition in diet-induced obesity cynomolgus monkeys (Example 4); details: both, cynomolgus monkey, in vivo, sc
# Method: (§1) The monkeys are divided into two groups based on age, sex, body weight and BMI, each group having one male and one female.
# (§2) The study included three periods: baseline period (the first week), treatment period (the second week through the seventh week), and recovering period (the eighth week). After the monkeys adapted to the meal time for at least 30 days, the body weight, BMI, and body composition of each animal was determined at day 7 of the first baseline period.
# (§3) Group 2 animals were administered three times a day at a dose of 10 μg/kg each time during week 2, three times a day at a dose of 20 μg/kg each time during week 3, and three times a day at a dose of 40 μg/kg each time during the first three days of week 4.
# (§4) The dose for Group 1 animals during week 5 through week 7 was determined based on the dose given to Group 2 animals during week 2 through week 4. Group 1 animals were administered twice a day at a dose of 10 μg/kg each time during week 5, twice a day at a dose of 20 μg/kg each time during week 6, and twice a day at a dose of 20 μg/kg each time during week 7 (same dose as week 6). During the 6-week treatment period, the body weight and crown-rump height of each animal were measured at the end of each week. The body fat content was measured at week 4 and week 7. No administration was given during week 8.
# (§5) The body weight was measured once a week, and crown-rump height was measured at the end of week 1, week 4, and week 7 when Dual-Energy X-ray Absorptiometry (DEXA) scan was taken. The animals were anesthetized by intramuscular administration of 0.02 m/kg Shumianning. While resting on one side, the animals were measured from the top of the head to the bottom of tail as the crown-rump height. BMI was calculated using the formula: BMI=body weight (kg)/crown-rump height (m)^2. DEXA scan was conducted while the animals were anesthetized and body compositions were analyzed based on DEXA scan.
# [3] = system: diet-induced obesity cynomolgus monkeys; experiment: as above
# Method: as §1, §2, §3, §4, §5
# [4] = pharmacokinetic studies in monkey models; details: in vivo, sc
# [5] = female rats, Beinaglutide 15 μg/kg subcutaneous
# [6] = female rats, Beinaglutide 30 μg/kg subcutaneous
# [7] = female rats, Beinaglutide 60 μg/kg subcutaneous
# [8] = male rats, Beinaglutide 15 μg/kg subcutaneous
# [9] = male rats, Beinaglutide 30 μg/kg subcutaneous
# [10] = male rats, Beinaglutide 60 μg/kg subcutaneous
structure (smiles),measurement,setting,value
CC[C@H](C)[C@H](NC(=O)[C@H](Cc1ccccc1)NC(=O)[C@H](CCC(=O)O)NC(=O)[C@H](CCCCN)NC(=O)[C@H](C)NC(=O)[C@H](C)NC(=O)[C@H](CCC(N)=O)NC(=O)CNC(=O)[C@H](CCC(=O)O)NC(=O)[C@H](CC(C)C)NC(=O)[C@H](Cc1ccc(O)cc1)NC(=O)[C@H](CO)NC(=O)[C@H](CO)NC(=O)[C@@H](NC(=O)[C@H](CC(=O)O)NC(=O)[C@H](CO)NC(=O)[C@@H](NC(=O)[C@H](Cc1ccccc1)NC(=O)[C@@H](NC(=O)CNC(=O)[C@H](CCC(=O)O)NC(=O)[C@H](C)NC(=O)[C@@H](N)Cc1cnc[nH]1)[C@@H](C)O)[C@@H](C)O)C(C)C)C(=O)N[C@@H](C)C(=O)N[C@@H](Cc1c[nH]c2ccccc12)C(=O)N[C@@H](CC(C)C)C(=O)N[C@H](C(=O)N[C@@H](CCCCN)C(=O)NCC(=O)N[C@@H](CCCNC(=N)N)C(=O)O)C(C)C [Beinaglutide],effect on increase of blood sugar induced by alloxan and streptozotocin,rats,reduce the increase of blood sugar induced by alloxan and streptozotocin
same,% of Gastric Remains,Sprague-Dawley (SD) rats; [5],96.81 ± 11.61 %
same,Gross Weight of Stomach,Sprague-Dawley (SD) rats; [5],3.10 ± 0.22 g
same,Propelling Distance of Carbon Powder,Sprague-Dawley (SD) rats; [5],41.96 ± 5.30 cm
same,Propelling Rate of Carbon Powder,Sprague-Dawley (SD) rats; [5],46.97 ± 5.54 %
same,% of Gastric Remains,Sprague-Dawley (SD) rats; [6],132.66 ± 16.34 %
same,Gross Weight of Stomach,Sprague-Dawley (SD) rats; [6],3.78 ± 0.35 g
same,Propelling Distance of Carbon Powder,Sprague-Dawley (SD) rats; [6],30.58 ± 3.66 cm
same,Propelling Rate of Carbon Powder,Sprague-Dawley (SD) rats; [6],33.88 ± 3.98 %
same,% of Gastric Remains,Sprague-Dawley (SD) rats; [7],141.53 ± 7.18 %
same,Gross Weight of Stomach,Sprague-Dawley (SD) rats; [7],3.90 ± 0.15 g
same,Propelling Distance of Carbon Powder,Sprague-Dawley (SD) rats; [7],5.40 ± 1.84 cm
same,Propelling Rate of Carbon Powder,Sprague-Dawley (SD) rats; [7],5.94 ± 1.99 %
same,% of Gastric Remains,Sprague-Dawley (SD) rats; [8],44.14 ± 17.18%
same,Gross Weight of Stomach,Sprague-Dawley (SD) rats; [8],2.86 ± 0.52 g
same,Propelling Distance of Carbon Powder,Sprague-Dawley (SD) rats; [8],64.22 ± 3.84 cm
same,Propelling Rate of Carbon Powder,Sprague-Dawley (SD) rats; [8],61.80 ± 4.14%
same,% of Gastric Remains,Sprague-Dawley (SD) rats; [9],54.92 ± 14.32%
same,Gross Weight of Stomach,Sprague-Dawley (SD) rats; [9],3.08 ± 0.48 g
same,Propelling Distance of Carbon Powder,Sprague-Dawley (SD) rats; [9],34.40 ± 5.91 cm
same,Propelling Rate of Carbon Powder,Sprague-Dawley (SD) rats; [9],35.46 ± 6.15 %
same,% of Gastric Remains,Sprague-Dawley (SD) rats; [10],128.70 ± 14.23 %
same,Gross Weight of Stomach,Sprague-Dawley (SD) rats; [10],5.36 ± 0.52 g
same,Propelling Distance of Carbon Powder,Sprague-Dawley (SD) rats; [10],11.90 ± 6.38 cm
same,Propelling Rate of Carbon Powder,Sprague-Dawley (SD) rats; [10],12.28 ± 6.69 %
same,effect on glucose-induced high blood sugar,[1],lower glucose-induced high blood sugar
same,BMI,"type 2 diabetic patients; 0.1 mg three times a day with metformin, treatment for 2 weeks, FAS n = 73, Day 1 26.24 ± 3.31",26.12 ± 3.29 kg/m^2
same,BMI,"type 2 diabetic patients; 0.1 mg three times a day with metformin, treatment for 4 weeks, FAS n = 73, Day 1 26.24 ± 3.31",26.02 ± 3.33 kg/m^2
same,BMI,"type 2 diabetic patients; 0.1 mg three times a day with metformin, treatment for 8 weeks, FAS n = 73, Day 1 26.24 ± 3.31",25.84 ± 3.25 kg/m^2
same,BMI,"type 2 diabetic patients; 0.1 mg three times a day with metformin, treatment for 12 weeks, FAS n = 73, Day 1 26.24 ± 3.31",25.76 ± 3.21 kg/m^2
same,BMI,"type 2 diabetic patients; 0.2 mg three times a day with metformin, treatment for 2 weeks, FAS n = 70, Day 1 25.14 ± 3.10",25.03 ± 3.21 kg/m^2
same,BMI,"type 2 diabetic patients; 0.2 mg three times a day with metformin, treatment for 4 weeks, FAS n = 70, Day 1 25.14 ± 3.10",24.85 ± 3.25 kg/m^2
same,BMI,"type 2 diabetic patients; 0.2 mg three times a day with metformin, treatment for 8 weeks, FAS n = 70, Day 1 25.14 ± 3.10",24.54 ± 3.33 kg/m^2
same,BMI,"type 2 diabetic patients; 0.2 mg three times a day with metformin, treatment for 12 weeks, FAS n = 70, Day 1 25.14 ± 3.10",24.43 ± 3.42 kg/m^2
same,MTD at 504 h,[2],0.02 to 0.04 mg/kg
same,body fat content,"[3]; Group 1, end of week 7, compared to baseline",decrease in body fat content
same,body fat content,"[3]; Group 2, end of week 4, compared to baseline",significant decrease in body fat content
same,signs of anorexia,"[3]; Group 2, 40 μg/kg three times a day, first three days of week 4",severe signs of anorexia
same,Body Weight,"[3]; animal F1 (female, Group 1), Week 5, 10 μg/kg twice a day, Week 4 before treatment 5.96",5.92 kg
same,BMI,"[3]; animal F1, Week 5, 10 μg/kg twice a day, Week 4 before treatment 41",39 kg/m^2
same,Body Weight,"[3]; animal F1, Week 6, 20 μg/kg twice a day, Week 4 before treatment 5.96",5.94 kg
same,BMI,"[3]; animal F1, Week 6, 20 μg/kg twice a day, Week 4 before treatment 41",39 kg/m^2
same,Body Weight,"[3]; animal F1, Week 7, 20 μg/kg twice a day, Week 4 before treatment 5.96",5.84 kg
same,BMI,"[3]; animal F1, Week 7, 20 μg/kg twice a day, Week 4 before treatment 41",38 kg/m^2
same,Fat Content (DEXA),"[3]; animal F1, Week 7, after Beinaglutide weeks 5-7, Week 4 1.98",1.81 kg
same,Lean Mass (DEXA),"[3]; animal F1, Week 7, after Beinaglutide weeks 5-7, Week 4 4.09",3.98 kg
same,Body Fat Percentage,"[3]; animal F1, Week 7, after Beinaglutide weeks 5-7, Week 4 33.2",31.0%
same,Body Weight,"[3]; animal F2 (female, Group 2), Week 2, 10 μg/kg three times a day, Week 1 baseline 6.18",5.96 kg
same,Body Weight,"[3]; animal F2, Week 3, 20 μg/kg three times a day, Week 1 baseline 6.18",5.76 kg
same,Body Weight,"[3]; animal F2, Week 4, 40/20 μg/kg three times a day, Week 1 baseline 6.18",5.56 kg
same,BMI,"[3]; animal F2, Week 4, 40/20 μg/kg three times a day, Week 1 baseline 41",37 kg/m^2
same,Fat Content (DEXA),"[3]; animal F2, Week 4, after Beinaglutide weeks 2-4, baseline 2.97",2.71 kg
same,Lean Mass (DEXA),"[3]; animal F2, Week 4, after Beinaglutide weeks 2-4, baseline 3.17",2.89 kg
same,Body Fat Percentage,"[3]; animal F2, Week 4, after Beinaglutide weeks 2-4, baseline 48.1",48.7%
same,Body Weight,"[3]; animal M1 (male, Group 1), Week 5, 10 μg/kg twice a day, Week 4 before treatment 11.20",10.90 kg
same,BMI,"[3]; animal M1, Week 5, 10 μg/kg twice a day, Week 4 before treatment 51",49 kg/m^2
same,Body Weight,"[3]; animal M1, Week 6, 20 μg/kg twice a day, Week 4 before treatment 11.20",10.44 kg
same,BMI,"[3]; animal M1, Week 6, 20 μg/kg twice a day, Week 4 before treatment 51",47 kg/m^2
same,Body Weight,"[3]; animal M1, Week 7, 20 μg/kg twice a day, Week 4 before treatment 11.20",10.26 kg
same,BMI,"[3]; animal M1, Week 7, 20 μg/kg twice a day, Week 4 before treatment 51",46 kg/m^2
same,Fat Content (DEXA),"[3]; animal M1, Week 7, after Beinaglutide weeks 5-7, Week 4 3.66",3.15 kg
same,Lean Mass (DEXA),"[3]; animal M1, Week 7, after Beinaglutide weeks 5-7, Week 4 7.35",6.92 kg
same,Body Fat Percentage,"[3]; animal M1, Week 7, after Beinaglutide weeks 5-7, Week 4 32.7",30.7%
same,Body Weight,"[3]; animal M2 (male, Group 2), Week 2, 10 μg/kg three times a day, Week 1 baseline 10.52",10.30 kg
same,BMI,"[3]; animal M2, Week 2, 10 μg/kg three times a day, Week 1 baseline 52",51 kg/m^2
same,Body Weight,"[3]; animal M2, Week 3, 20 μg/kg three times a day, Week 1 baseline 10.52",10.00 kg
same,Body Weight,"[3]; animal M2, Week 4, 40/20 μg/kg three times a day, Week 1 baseline 10.52",9.70 kg
same,BMI,"[3]; animal M2, Week 4, 40/20 μg/kg three times a day, Week 1 baseline 52",48 kg/m^2
same,Fat Content (DEXA),"[3]; animal M2, Week 4, after Beinaglutide weeks 2-4, baseline 3.49",2.88 kg
same,Lean Mass (DEXA),"[3]; animal M2, Week 4, after Beinaglutide weeks 2-4, baseline 6.88",6.59 kg
same,Body Fat Percentage,"[3]; animal M2, Week 4, after Beinaglutide weeks 2-4, baseline 33.2",29.7%
same,body weight after three-week treatment,"[3]; compared to baseline period, n=4, p<0.05",significant weight loss
same,weekly food/calories intake,"[3]; during Beinaglutide treatment period compared to before treatment, p<0.05",significantly decreased
same,BMI after three weeks of treatment,[3]; two groups of animals,decreased
same,half-life,[4],15 to 30 min
